The source of these data is patent publication US20260191191A1, “METHOD FOR INACTIVATING ENVELOPED VIRUSES” (Merck Patent GmbH, priority 2022, published 2026).

The subject of data set [1] is Fresh human whole blood.
Data set [2] relates to Pseudorabies virus (PRV). The class given is cell-based. The following applies: CHO clarified harvest, 15° C., within 5 min.
Data set [3] relates to Xenotropic murine leukemia virus (XMuLV). The class given is cell-based.
The nature of data set [4]: Critical micelle concentration (CMC) determination by static surface tension.
Data set [5] has as its system Bovine viral diarrheal virus (BVDV). In kind it is cell-based.

“Also recorded” adds a separate entry of the source. Where two headings read alike, the source gives them in different places.

In the case of C11-C15 secondary alcohol ethoxylate, in data set [1], the “hemolysis compared with Triton X-100” value is recorded as “comparable to Triton™ X-100”. Further, the “PRV inactivation LRV” value in data set [2] (0.5% detergent) was ~ 6.5. Besides, the “PRV inactivation LRV” value in data set [2] (1.0% detergent) is given as no less than 5.0. In data set [3], the “SAE inactivation efficacy higher than Triton X-100 by” value is ~ 1.0 log; the “XMuLV inactivation efficacy compared with Triton X-100” value is “slightly higher efficacy than Triton™ X-100; also recorded: comparable inactivation with Triton™ X-100; also recorded: lower than that achieved with 1.0% Triton™ X-100, until a longer incubation time has elapsed; also recorded: comparable to that achieved with Triton™ X-100; also recorded: the same virus inactivation efficacy as Triton™ X-100”; the “XMuLV inactivation efficiency compared with Triton X-100” value is reported as “slightly higher than that achieved with Triton™ X-100 detergent”; the “time in which most XMuLV inactivation occurred” value is listed as no more than 5 min. Also, the “critical micelle concentration (CMC)” value in data set [4] worked out at 49 mg/L. In addition, in data set [5], the “BVDV inactivation LRV” value is reported as no less than 4.0.
